Each block holds one compound with its values, some of them ahead of it.
Assays:
[1] = Room temperature solubility of 4DOD in solvent systems, saturated solution dried and weighed (Example 2A); type: physicochemical; conditions: about 25° C.; for Calculated solubility of 4DOD: stirred 16 hours
Experimental: To serve as indicator agent, a […] polymerizable diacetylenic monomer, namely 5,7-dodecadiyn-1,12 diol bis(n-octadecyl urethane), “4DOD” hereinafter, is synthesized in sufficient quantity for preparation of a master batch of ink, by the method described in Yee U.S. Pat. No. 4,215,208 at column 17, lines 47-65 and is stored in a freezer. A small quantity of 4DOD is taken from frozen storage and is tested at room temperature for solubility in various solvent systems employing the following procedure.
100 g of deionized water is weighed into a 200 mL glass beaker. 4DOD powder is added to the glass beaker until the solution is saturated allowing excess 4DOD to remain present as undissolved solid. 75 g of deionized water is weighed into another 200 mL glass beaker, and 25 g acetone is added. 4DOD is then added to the water-acetone solvent system in the glass beaker until the solution is saturated and an excess of 4DOD remains as undissolved solid. 75 g of deionized water is weighed into a third 200 mL glass beaker. 25 g ethanol is added to the water and then 4DOD is added to the water-ethanol mixture until the solution is saturated and an excess of 4DOD remains as undissolved solid. Each solution is stirred on a magnetic plate for 16 hours at a controlled room temperature of about 25° C.
After 16 hours of stirring, 7 g of each solution (soluble portion only, avoiding any undissolved solid material) is transferred to a separate aluminum foil pan. The aluminum foil pans are left to stand under a fume hood for 2 hours to allow any volatile solvent to evaporate, and are then dried in a vacuum oven for one 1 hour. Each aluminum foil pan is then weighed and the solubility of the 4DOD in each solvent system is calculated in terms of the percent of solute based on the weight of the solvent system.

[2] = Comparative color-change reactivities of pressed pellets, cyan optical density after ageing at 37, 45 or 70° C. (Example 4); type: physicochemical; conditions: for color change kinetics / reactivity relative to raw product: 37° C., FIG. 12; for activation energy: color-change (solid-state polymerization) reaction of pellets
Experimental: Sample pellets are prepared from crystalline diacetylenic monomer powder using an E-Z Press 12-Ton Hydraulic Press and KBr Pellet Kit with 13 mm die set, as supplied by International Crystal Laboratories (Garfield, N.J.). Using about 300 mg powder, a pressure of 5 to 8 tons is applied for 2-3 minutes. Samples of 2,4-hexadiyn-1,6-bis(ethylurea) precipitated from dimethyl sulfoxide, methanol and a 4:1 by weight ethanol/water mixture are prepared. Pellets of raw 2,4-hexadiyn-1,6-bis(ethylurea) crystals (“KE raw”), precipitated from a solution in hot glacial acetic acid, using methanol as a precipitant, shortly after the 2,4-hexadiyn-1,6-bis(ethylurea) was synthesized, are included as controls.
While being handled by the edges, an individual pellet is placed in a transparent heat-seal bag, about 50 mm by 115 mm, vacuum sealed and placed into a heat-sealable foil pouch. The foil pouch is vacuum-sealed using a Fuji Impulse tabletop vacuum heat sealer. The sealed foil pouch containing the pellets is stored in a freezer at −30° C., or other suitable temperature, until ready for testing.
The heat-sealed foil pouch samples containing the pellets are placed in a water bath, for example a Huber circulating water bath, set to appropriate temperatures for example 37° C., 45° C. or 70° C., and aged for suitable measured time periods such as a few days at 37° C. or a few hours at 70° C. where the reaction proceeds more rapidly. The samples are weighted to keep them immersed in the water during the test. Timing is started immediately after each pouch is placed into the water bath. The pouch is removed at the end of the designated test period and its optical density is measured.
To measure optical density the pouch is briefly immersed in a second water bath set at 20° C. to quench the sample and prevent further color change during measurement. The foil pouch is cut open leaving the pellet inside the transparent heat-sealed bag. The reaction kinetics of the diacetylenic monomer are determined by measuring the cyan optical density (O.D.) of the aged pellets using an X-Rite 404 color reflection densitometer. The optical density can be measured on an arbitrary scale and used for comparative indications of color change reactivity.
In order to compensate for the thickness of the pellets, which are about 2 mm thick, when using the densitometer, the densitometer can be raised on to an elevated platform of corresponding height.

- Calculated solubility of 4DOD ([1]; 75% Water 25% Acetone): 10% wt %
- Calculated solubility of 4DOD ([1]; 100% Acetone): 32% wt %
- Calculated solubility of 4DOD ([1]; 100% Ethanol): 37% wt %
- Calculated solubility of 4DOD ([1]; Water): 0.03% wt %
- solubility in the individual organic solvent alone, in words ([1]; ethanol or acetone alone): remarkably high solubility
- solubility in water, in words ([1]; water): minimal solubility
Compound: 5,7-dodecadiyn-1,12-bis-n-octadecyl urethane [4DOD]

Compound: CCNC(=O)NCC#CC#CCNC(=O)NCC [2,4-hexadiyn-1,6-bis(ethylurea) crystallized from pyridine]
- color change kinetics / reactivity relative to raw product [2]: faster color change kinetics than does the raw product
- activation energy [2]: about 19 kcal/mol

Compound: CCNC(=O)NCC#CC#CCNC(=O)NCC [2,4-hexadiyn-1,6-bis(ethylurea)]
- color change kinetics / reactivity relative to raw product [2]: modestly faster reactivity than raw 2,4-hexadiyn-1,6-bis(ethylurea)
- reactivity profile ([2]; 45° C., FIG. 13): close to that of the pyridine product

Compound: CCNC(=O)NCC#CC#CCNC(=O)NCC [raw product, 2,4-hexadiyn-1,6-bis(ethylurea), reference compound]
- activation energy [2]: 23 kcal/mol

Reference: patent publication US8642807B2, “Crystallized diacetylenic indicator compounds and methods of preparing the compounds” (Temptime Corporation, priority 2007, dated 2014)
